≈ marks a conversion by molar mass, not a printed value.
Columns and labels:
[1] = Equilibrium aqueous solubility of the compound at pH 7.5 after 20 hrs by HPLC method; assay type: physicochemical
[2] = Permeability across apical to basolateral side in MDCK cells at 20 uM; assay type: ADME, cell-based, Canis lupus familiaris; conditions: dog
[3] = Oral bioavailability in CD-1 mouse at 10 mg/kg by LC-MS/MS method; assay type: ADME, organism-based; conditions: in vivo
[4] = Plasma concentration in CD-1 mouse at 10 mg/kg, po after 1 hr by LC-MS/MS method; assay type: ADME, organism-based
NCI-H460 [5] = experiment: Cytotoxicity against human NCI-H460 cells assessed as growth inhibition using low folate media after 7 days by Alamar blue assay; assay type: functional; conditions: NCI-H460, 168 h
NCI-H460 [6] = experiment: Cytotoxicity against human NCI-H460 cells assessed as growth inhibition using regular folate media after 7 days by Alamar blue assay; assay type: functional; conditions: NCI-H460, 168 h
MDA-MB-231 = experiment: Cytotoxicity against human MDA-MB-231 cells assessed as growth inhibition using regular folate media after 7 days by Alamar blue assay; assay type: functional; conditions: MDA-MB-231, 168 h
Mus musculus [7] = experiment: Unbound clearance in CD-1 mouse at 1 mg/kg, iv by LC-MS/MS method; assay type: ADME, organism-based; conditions: in vivo
Mus musculus [8] = experiment: Unbound volume of distribution at steady state in CD-1 mouse at 1 mg/kg, iv by LC-MS/MS method; assay type: ADME, organism-based; conditions: in vivo
Mus musculus [9] = experiment: Unbound AUC in CD-1 mouse at 10 mg/kg, po by LC-MS/MS method; assay type: ADME, organism-based; conditions: in vivo
Mus musculus [10] = experiment: Unbound Cmax in CD-1 mouse at 10 mg/kg, po by LC-MS/MS method; assay type: ADME, organism-based; conditions: in vivo
Mus musculus [11] = experiment: In vivo inhibition of AICARFT in tumor of low folate diet fed nude mouse xenografted with human NCI-H460 cells assessed as increase in intratumoral ZMP levels at 0.3 to 30 mg/kg after 4 hrs relative to vehicle-treated control; assay type: functional
Mus musculus [12] = experiment: In vivo inhibition of AICARFT in tumor of low folate diet fed nude mouse xenografted with human NCI-H460 cells assessed as increase in circulating AICAr levels at 0.3 to 30 mg/kg after 4 hrs relative to vehicle-treated control; assay type: functional
[13] = target: T1, Serine hydroxymethyltransferase, cytosolic (Homo sapiens, UniProt P34896); experiment: Inhibition of SHMT1 (unknown origin) using serine/THF as substrate after 50 mins by HPLC method
T1 sequence (P34896 whole entry): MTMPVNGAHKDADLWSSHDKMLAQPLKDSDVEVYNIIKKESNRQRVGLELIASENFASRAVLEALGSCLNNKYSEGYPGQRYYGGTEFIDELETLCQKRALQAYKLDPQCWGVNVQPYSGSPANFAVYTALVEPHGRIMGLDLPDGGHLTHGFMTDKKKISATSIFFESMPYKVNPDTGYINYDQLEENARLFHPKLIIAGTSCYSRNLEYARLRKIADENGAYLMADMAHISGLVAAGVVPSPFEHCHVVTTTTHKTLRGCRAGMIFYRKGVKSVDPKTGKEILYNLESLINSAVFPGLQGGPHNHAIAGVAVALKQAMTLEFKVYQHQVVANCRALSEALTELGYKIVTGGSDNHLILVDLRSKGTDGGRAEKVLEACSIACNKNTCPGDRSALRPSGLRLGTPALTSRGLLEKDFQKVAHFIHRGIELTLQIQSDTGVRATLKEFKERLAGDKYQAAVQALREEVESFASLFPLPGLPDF

[14] = target: T2, Bifunctional methylenetetrahydrofolate dehydrogenase/cyclohydrolase, mitochondrial (Homo sapiens, UniProt P13995); experiment: Inhibition of MTHFD2 (unknown origin) using NAD/5,10-methylene THF as substrate after 30 mins by HPLC method
T2 sequence (P13995 whole entry): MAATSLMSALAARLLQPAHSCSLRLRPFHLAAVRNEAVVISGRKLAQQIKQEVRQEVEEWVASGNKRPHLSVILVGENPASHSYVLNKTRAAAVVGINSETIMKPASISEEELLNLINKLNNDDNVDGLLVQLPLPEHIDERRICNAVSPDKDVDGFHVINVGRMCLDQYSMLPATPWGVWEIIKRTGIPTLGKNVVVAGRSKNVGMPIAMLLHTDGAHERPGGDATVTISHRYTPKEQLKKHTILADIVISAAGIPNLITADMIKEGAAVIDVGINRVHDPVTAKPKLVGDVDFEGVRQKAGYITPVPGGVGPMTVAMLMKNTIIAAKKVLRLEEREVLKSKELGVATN

[15] = Drug metabolism in microsomes (unknown origin); assay type: ADME, Microsome; conditions: read-out: Drug metabolism
CYP3A4 = CYP3A4 (Homo sapiens, UniProt P08684); experiment: Inhibition of human CYP3A4 at 10 uM relative to control; assay type: ADME
CYP2D6 = CYP2D6 (Homo sapiens, UniProt P10635); experiment: Inhibition of human CYP2D6 at 10 uM relative to control; assay type: ADME
CYP2C9 = CYP2C9 (Homo sapiens, UniProt P11712); experiment: Inhibition of human CYP2C9 at 10 uM relative to control; assay type: ADME
[16] = Antiproliferative activity against human MDA-MB-231met2 cells by Alamar blue assay; assay type: functional, cell-based
[17] = Antitumor activity against human MDA-MB-231met2 cells xenografted in athymic nude mouse assessed as tumor volume at 30 mg/kg, bid administered via oral gavage for 22 days relative to control; assay type: functional
[18] = Antitumor activity against human MDA-MB-231met2 cells xenografted in athymic nude mouse assessed as tumor volume at 60 mg/kg, bid administered via oral gavage for 22 days relative to control; assay type: functional
Mus musculus [19] = experiment: Toxicity in athymic nude mouse xenografted with human MDA-MB-231met2 cells assessed as mortality at 30 to 60 mg/kg, bid administered via oral gavage for 22 days; assay type: organism-based; conditions: in vivo, 528 h
Mus musculus [20] = experiment: In vivo inhibition of AICARFT in tumor of athymic nude mouse xenografted with human MDA-MB-231met2 cells assessed as increase in AICAr levels at 30 mg/kg, bid administered via oral gavage for 22 days relative to control; assay type: functional
Mus musculus [21] = experiment: In vivo inhibition of AICARFT in tumor of athymic nude mouse xenografted with human MDA-MB-231met2 cells assessed as increase in ZMP levels at 30 mg/kg, bid administered via oral gavage for 22 days relative to control; assay type: functional
Mus musculus [22] = experiment: In vivo inhibition of AICARFT in tumor of athymic nude mouse xenografted with human MDA-MB-231met2 cells assessed as increase in AICAr levels at 60 mg/kg, bid administered via oral gavage for 22 days relative to control; assay type: functional
Mus musculus [23] = experiment: In vivo inhibition of AICARFT in tumor of athymic nude mouse xenografted with human MDA-MB-231met2 cells assessed as increase in ZMP levels at 60 mg/kg, bid administered via oral gavage for 22 days relative to control; assay type: functional

Chain of CYP3A4 (P08684 whole entry): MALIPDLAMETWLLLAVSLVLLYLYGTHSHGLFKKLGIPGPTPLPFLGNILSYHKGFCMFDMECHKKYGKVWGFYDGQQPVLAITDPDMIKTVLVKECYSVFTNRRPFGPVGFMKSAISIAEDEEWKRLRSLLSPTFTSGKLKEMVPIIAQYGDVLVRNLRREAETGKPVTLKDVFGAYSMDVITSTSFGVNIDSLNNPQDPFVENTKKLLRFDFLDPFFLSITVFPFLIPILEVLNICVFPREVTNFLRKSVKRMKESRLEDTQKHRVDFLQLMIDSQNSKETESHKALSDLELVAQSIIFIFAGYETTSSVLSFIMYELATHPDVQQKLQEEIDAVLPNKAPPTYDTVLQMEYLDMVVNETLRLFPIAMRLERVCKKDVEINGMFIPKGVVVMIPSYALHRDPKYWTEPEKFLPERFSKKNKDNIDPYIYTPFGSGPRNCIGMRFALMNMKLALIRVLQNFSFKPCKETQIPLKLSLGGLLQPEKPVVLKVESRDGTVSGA
Chain of CYP2C9 (P11712 whole entry): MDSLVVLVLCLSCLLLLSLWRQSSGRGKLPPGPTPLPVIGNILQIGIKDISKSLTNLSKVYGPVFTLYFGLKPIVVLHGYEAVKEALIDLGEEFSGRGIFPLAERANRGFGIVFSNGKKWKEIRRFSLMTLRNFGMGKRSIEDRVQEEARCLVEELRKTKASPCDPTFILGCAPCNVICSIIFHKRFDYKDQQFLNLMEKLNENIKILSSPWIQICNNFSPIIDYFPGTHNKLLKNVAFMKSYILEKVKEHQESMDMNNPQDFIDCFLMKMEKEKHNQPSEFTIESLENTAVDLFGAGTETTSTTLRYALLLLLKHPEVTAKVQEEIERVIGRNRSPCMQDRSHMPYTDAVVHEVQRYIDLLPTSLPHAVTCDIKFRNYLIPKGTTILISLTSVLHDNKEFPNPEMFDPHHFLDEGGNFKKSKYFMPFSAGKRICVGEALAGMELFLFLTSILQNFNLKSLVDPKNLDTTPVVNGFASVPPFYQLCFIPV
Chain of CYP2D6 (P10635 whole entry): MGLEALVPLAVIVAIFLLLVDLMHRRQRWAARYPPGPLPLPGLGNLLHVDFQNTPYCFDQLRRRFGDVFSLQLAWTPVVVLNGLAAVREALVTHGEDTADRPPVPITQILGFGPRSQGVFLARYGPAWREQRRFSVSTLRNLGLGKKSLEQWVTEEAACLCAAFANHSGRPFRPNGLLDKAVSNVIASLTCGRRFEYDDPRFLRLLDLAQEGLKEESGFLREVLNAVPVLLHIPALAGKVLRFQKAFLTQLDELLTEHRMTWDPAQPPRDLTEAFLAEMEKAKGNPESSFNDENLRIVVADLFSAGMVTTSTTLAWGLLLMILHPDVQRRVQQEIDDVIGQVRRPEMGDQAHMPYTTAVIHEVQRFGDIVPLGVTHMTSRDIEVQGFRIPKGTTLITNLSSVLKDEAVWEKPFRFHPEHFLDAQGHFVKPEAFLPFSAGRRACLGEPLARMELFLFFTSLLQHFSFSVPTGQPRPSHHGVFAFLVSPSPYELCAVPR

## O=c1[nH]ccc2cc(F)c(NS(=O)(=O)c3ccc(N4CC[C@@H](O)C4)s3)cc12
[1]
  solubility thermodynamic at 20 h: 20 µg/mL (≈ 48.8 µM)
[2]
  permeability: 0.2%
[3]
  bioavailability: 25%
[4]
  concentration at 1 h: 8.5 µM
NCI-H460 [5]
  GI50: 25 nM
NCI-H460 [6]
  GI50: 6580 nM
MDA-MB-231
  GI50: 44 nM
Mus musculus [7]
  CL free: 78 mL/min/kg
Mus musculus [8]
  Vduss: 12 L/kg
Mus musculus [9]
  fAUC: 1.279 µM·h
Mus musculus [10]
  fCmax: 289 nM
Mus musculus [11]
  fold change (FC): >100
Mus musculus [12]
  fold change (FC): 80
[13]
  IC50: > 100000 nM
[14]
  IC50: > 100000 nM
[15]
  metabolised: < 10%
CYP3A4
  inhibition at 10 µM: < 10%
CYP2D6
  inhibition at 10 µM: < 10%
CYP2C9
  inhibition at 10 µM: < 10%
[16]
  IC50: 85 nM
[17]
  Activity: 16%
[18]
  Activity: -1%
Mus musculus [19]
  Activity: Non-Toxic
Mus musculus [20]
  fold change (FC): 30
Mus musculus [21]
  fold change (FC): 10
Mus musculus [22]
  fold change (FC): 3
Mus musculus [23]
  fold change (FC): 16
